A word on the pIC50: it is the negative decadic logarithm of the IC50, by convention in mol/L. Low values mean a high IC50, high ones a low IC50.

The assay is described as follows: Inhibition of TNFalpha-PLAP (unknown origin).

pIC50: −log10 of the molar value. Bounds are passed on as bounds.

Turning to `COc1cc(O)c2c(c1)/C=C/C[C@H](O)[C@H](O)C(=O)/C(F)=C\C[C@H](C)OC2=O`, the pIC50 was 7.44. For `COc1cc(O)c2c(c1)/C=C/C[C@H](O)[C@H](O)C(=O)/C=C(/C)C[C@H](C)OC2=O` the value was less than 5.00.

The values above are taken from BindingDB's records for doi:10.1021/acs.jmedchem.6b00788 (University of Pittsburgh, 2017).
